# In PMC8298264, “Function of cofactor Akirin2 in the regulation of gene expression in model human neutrophil-like HL60 cells” (Bioscience Reports, 2021):
# Legend:
# [1] = system: recombinant human Akirin2 (recAkirin2); assay: EpiTriton Histone Peptide Array, recAkirin2 binding (fluorescence); details: recAkirin2 vs HSP70, Student's t test and One-Way ANOVA (P<0.05), n=2 technical replicates
# recAkirin2 [2] = biological target: T1, recAkirin2 (Homo sapiens, UniProt Q53H80); assay: In vitro protein pull-down and Western blot of recAkirin2 with biotinylated histone H3.1 peptides; format: binding; design: DDK (FLAG) (C); purchased GenScript (E. coli) or OriGene (HEK293T); 'insect cells and E. coli'; details: streptavidin beads, 1 µg protein, 2 h at RT, Akirin2-specific antibody ab130473
# [3] = system: ELANE and LHX2 mRNA in human HL60 cells; assay: Akirin2 'distraction' by histone peptide transfection, ELANE and LHX2 mRNA by qRT-PCR; format: cell-based; details: 1.5 μg peptide per well, HL60 1 × 10^5 cells/well, harvested after 72 h; normalized to β-actin; unpaired t test P<0.05, n=3 biological replicates
# AKR2 = system: AKR2; design: key: A: Very high confidence in the interaction; B: High confidence in the interaction; D: Moderate confidence in the interaction; details: AKR2-interacting proteins (IPs), physical interactome; ref https://doi.org/10.3390/vaccines8010077; cited from earlier work
# Excerpt: Supplement BSR-2021-1120_supp1.zip/BSR-2021-1120_suppST4.xlsx, sheet "BPs related to AKR2-IPs" | column: Predicted Biological Score (PBS)
# recAkirin2 [4] = biological target: T1, recAkirin2; assay: Akirin2–IP interactions in HL60 lysate, c-Myc pull-down and dot blot; format: binding; details: recAkirin2 on c-Myc beads with HL60 lysate, dot blot; compared with SNRNP70, Student's t test P<0.05, n=2 biological replicates
# Procedure: Some of the previously identified Akirin2 IPs were selected for analysis of Akirin2–IP interactions in human HL60 cells. The HL60 cells were pelleted, washed with cold PBS and proteins were extracted by adding 1 ml of cold TBS supplemented with protease inhibitor cocktail (Complete Mini EDTA-free, Roche, Switzerland). Cells were disrupted passing through a 20 G needle and sonicated (3 min/cycle, 3 cycles, 25°C) until lysate was clear. Lysate was centrifuged at 12000×g for 30 min at 4°C, after which the supernatant was collected, and protein concentration was determined using the BCA Protein Assay using BSA as the standard. The COOH-(Myc-([…])-DDK)-tagged recAkirin2 produced in human cells was used for interactions with the identified Akirin2–IPs, mediator of RNA polymerase II transcription subunit 16 (THRAP5; Q9Y2X0), phosphatidylinositol transfer protein-α isoform (PITPNA; Q00169), protein Wnt-2 (WNT2; P09544), and splicing factor 3a subunit 1 (SF3A1; Q15459). The U1 small nuclear ribonucleoprotein 70 kDa (SNRNP70; P08621) was used as protein negative control. […] Area and percent analysis of each chemiluminescence dot signal were obtained and analyzed using Fiji program (ImageJ 1.52n; https://downloads.tomsguide.com/ImageJ,0301-31184.html). […]
# tick SUB = details: cited from earlier work
# Excerpt: Epigenetic modifications of histone H3.1 at Lys amino acids has been involved in the regulation of transcription in different BPs and pathogen infection [[48–51]].
# human HL60 cells = assay: SWATH-MS proteomics, differential protein representation, akirin2 KO vs WT HL60 cells; format: cell-based
# Procedure: Total proteins were extracted from WT and akirin2 KO HL60 cells using the AllPrep DNA/RNA/Protein Mini Kit (Qiagen) and protein concentration was determined using the BCA Protein Assay with BSA (Sigma–Aldrich) as standard. Protein extracts (150 µg per sample, n=3 biological replicates) from each WT and KO cells were trypsin digested using the FASP Protein Digestion Kit (Expedeon Ltd., Abcam, Cambridge, U.K.) and sequencing grade trypsin (Promega, Madison, WI, U.S.A.) following manufacturer’s recommendations. The resulting peptides were finally desalted on to OMIX Pipette tips C18 (Agilent Technologies, Santa Clara, CA, U.S.A.), dried down and stored at −20 °C until mass spectrometry analysis. […] Three micrograms of each protein digest from the three biological replicates of WT and akirin2 KO HL60 cells were used for the generation of the reference spectral ion library as part of the SWATH-MS analysis.
# Peptides were eluted in a 120-min gradient from 5 to 30% solvent B in solvent A followed by 15-min gradient from 30 to 60% solvent B in solvent A (solvent A: 0.1% formic acid in water, solvent B: 0.1% formic acid in acetonitrile) and directly injected into the mass spectrometer for analysis. For IDA experiments, the mass spectrometer was set to scanning full spectra (350–1400 m/z) using 250 ms accumulation time per spectrum, followed by up to 50 MS/MS scans (100–1500 m/z). Candidate ions with a charge state between +2 and +5 counts per second above a minimum threshold of 100 were isolated for fragmentation. One MS/MS spectrum was collected for 100 ms, before adding those precursor ions to the exclusion list for 15 s (mass spectrometer operated by Analyst TF 1.6, AB Sciex). Dynamic background subtraction was turned off. MS/MS analyses were recorded in high-sensitivity mode with rolling collision energy on and a collision energy spread of 5. For SWATH quantitative analysis, six independent samples (three replicates from WT and akirin2 KO HL60 cells, 5 µg each) were subjected to the cyclic DIA of mass spectra using the SWATH variable windows calculator (V 1.0, AB Sciex) and the SWATH acquisition method editor (AB Sciex), similar to established methods. […] For these experiments, a 50-ms survey scan (350–1400 m/z) was acquired at the beginning of each cycle, and SWATH–MS/MS spectra were collected from 100–1500 m/z for 70 ms at high-sensitivity mode, resulting in a cycle time of 3.6 s. Collision energy for each window was determined according to the calculation for a charge +2 ion-centered upon the window with a collision energy spread of 15. To create a spectral library of all the detectable peptides in the samples, the IDA MS raw files were combined and subjected to database search in unison using ProteinPilot software v. 5.0.1 (AB Sciex) with the Paragon algorithm. […] The detected protein threshold was set at 0.05. An independent false discovery rate (FDR) analysis, using the target–decoy approach provided by Protein Pilot (AB Sciex; https://sciex.com/products/software/proteinpilot-software), was used to assess the quality of identifications. Positive identifications were considered when identified proteins reached 1% of global FDR. […] Global normalization was performed according to the Total Area Sums (TAS) of all detected proteins in the samples. […] Heatmaps were prepared using the Heatmapper (http://www.heatmapper.ca/expression/) with average linkage and Euclidean distance measurement method.
# [5] = KO vs WT, akirin2 KO vs WT HL60 cells, sheet "Under-represented in KO"
# [6] = SWATH-MS, akirin2 KO vs WT HL60 cells, sheet "Under-represented in KO"
# [7] = KO vs WT HL60 cells, sheet "Under-represented in KO"
# [8] = akirin2 KO vs WT HL60 cells, sheet "Under-represented in KO"
# [9] = SWATH-MS, akirin2 KO vs WT HL60 cells, over-represented in KO
# [10] = Over-represented in KO, KO vs WT HL60 cells
# [11] = SWATH-MS, akirin2 KO vs WT HL60 cells, under-represented in KO
# T1 sequence (Q53H80 whole entry): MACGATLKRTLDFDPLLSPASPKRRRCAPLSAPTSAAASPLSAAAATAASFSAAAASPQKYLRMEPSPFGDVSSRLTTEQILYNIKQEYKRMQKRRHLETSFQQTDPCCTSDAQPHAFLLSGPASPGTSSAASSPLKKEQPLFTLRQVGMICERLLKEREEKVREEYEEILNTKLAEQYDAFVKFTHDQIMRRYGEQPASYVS
substance,measurement,setting,value
"ARTKQTARKSTGGK(Me2)APRKQL-Peg-Biot [Peptide H3met, histone H3.1 amino acids 1–20 dimethylated at Lys^14, biotinylated]",Akirin2–histone interaction by histone peptide array,[1],Akirin2–histone H3.1 interacting peptides
same,recAkirin2–histone H3.1 peptide interaction by pull-down and Western blot,recAkirin2 [2],corroborated by in vitro protein pull-down and Western blot analysis
"H2A: unrelated histone H2A (amino acids 1–17) peptide (Epicypher, Inc.) (SGRGKQGGKARAKAKTR; UniProt P0C0S8 2-18, looked up, fragment) [Peptide H2A]",Effect of transfection on gene expression (ELANE and LHX2 mRNA),[3],not the unrelated H2A or HEPES buffer affected gene expression
RGPD3,Predicted Biological Score (PBS),AKR2,A
RGPD5,Predicted Biological Score (PBS),AKR2,A
RGPD8,Predicted Biological Score (PBS),AKR2,A
"SNRNP70: U1 small nuclear ribonucleoprotein 70 kDa (P08621), protein negative control",Akirin2–IP interaction,recAkirin2 [4],low interaction with Akirin2
WDYHV1,Predicted Biological Score (PBS),AKR2,A
"histone H4 but: histone H4, amino acids 1–23 butyrylated at Lys 5, 8 and 12",physical interaction with tick SUB,tick SUB,physical interaction
sp¦Q01650¦LAT1_HUMAN,Fold Change,human HL60 cells; [5],0.603
same,Log (Fold Change),human HL60 cells; [5],-0.2197
sp¦Q02880¦TOP2B_HUMAN,Fold Change,human HL60 cells; [6],0.7738
same,Log (Fold Change),human HL60 cells; [6],-0.1113
sp¦Q07812¦BAX_HUMAN,Fold Change,human HL60 cells; [7],0.5501
same,Log (Fold Change),human HL60 cells; [7],-0.2596
sp¦Q08945¦SSRP1_HUMAN,Fold Change,human HL60 cells; [8],0.3484
same,Log (Fold Change),human HL60 cells; [8],-0.4579
sp¦Q09666¦AHNK_HUMAN,Fold Change,human HL60 cells; [9],1.42
same,Log (Fold Change),human HL60 cells; [9],0.1523
sp¦Q13283¦G3BP1_HUMAN,Fold Change,human HL60 cells; [10],1.326
same,Log (Fold Change),human HL60 cells; [10],0.1226
sp¦Q14165¦MLEC_HUMAN,Fold Change,human HL60 cells; [11],0.7439
same,Log (Fold Change),human HL60 cells; [11],-0.1285
sp¦Q14204¦DYHC1_HUMAN,Fold Change,human HL60 cells; [8],0.6536
same,Log (Fold Change),human HL60 cells; [8],-0.1847
sp¦Q14289¦FAK2_HUMAN,Fold Change,human HL60 cells; [7],0.4591
same,Log (Fold Change),human HL60 cells; [7],-0.3381
sp¦Q14692¦BMS1_HUMAN,Fold Change,human HL60 cells; [5],0.6053
same,Log (Fold Change),human HL60 cells; [5],-0.218
sp¦Q15056¦IF4H_HUMAN,Fold Change,human HL60 cells; [10],1.397
same,Log (Fold Change),human HL60 cells; [10],0.1451
sp¦Q92608¦DOCK2_HUMAN,Fold Change,human HL60 cells; [7],0.4625
same,Log (Fold Change),human HL60 cells; [7],-0.3349
sp¦Q92616¦GCN1_HUMAN,Fold Change,human HL60 cells; [7],0.4921
same,Log (Fold Change),human HL60 cells; [7],-0.3079
